Test results published in patent US4866044A, “Solubilized composition of poorly-soluble pharmaceutical product” (Takeda Chemical Industries, Ltd., priority 1985, dated 1989).

Legend:
[1] = physchem; details: water
[2] = pH 6

Molecule: CCCCCCCCCCCCCCCCCCNC(=O)OCC(COP(=O)([O-])OCC[n+]1ccsc1)OC (centres unmarked) [Compound [1], 3-(n-Octadecylcarbamoyloxy)-2-methoxypropyl 2-thiazolioethyl phosphate]
- solubility [1]: ~100 mg/mL

Molecule: alanine
- redissolubility [2]: O (key: O: dissolved within one minute; Δ: dissolved within one to three minutes)
